{
  "source": "ChEMBL document CHEMBL1201862",
  "about": "“PubChem BioAssay data set” (2004)",
  "key": {"[1]": {"molecular_target": "Voltage-gated inwardly rectifying potassium channel KCNH2 (Homo sapiens, UniProt Q12809)", "sequence (Q12809 whole entry)": "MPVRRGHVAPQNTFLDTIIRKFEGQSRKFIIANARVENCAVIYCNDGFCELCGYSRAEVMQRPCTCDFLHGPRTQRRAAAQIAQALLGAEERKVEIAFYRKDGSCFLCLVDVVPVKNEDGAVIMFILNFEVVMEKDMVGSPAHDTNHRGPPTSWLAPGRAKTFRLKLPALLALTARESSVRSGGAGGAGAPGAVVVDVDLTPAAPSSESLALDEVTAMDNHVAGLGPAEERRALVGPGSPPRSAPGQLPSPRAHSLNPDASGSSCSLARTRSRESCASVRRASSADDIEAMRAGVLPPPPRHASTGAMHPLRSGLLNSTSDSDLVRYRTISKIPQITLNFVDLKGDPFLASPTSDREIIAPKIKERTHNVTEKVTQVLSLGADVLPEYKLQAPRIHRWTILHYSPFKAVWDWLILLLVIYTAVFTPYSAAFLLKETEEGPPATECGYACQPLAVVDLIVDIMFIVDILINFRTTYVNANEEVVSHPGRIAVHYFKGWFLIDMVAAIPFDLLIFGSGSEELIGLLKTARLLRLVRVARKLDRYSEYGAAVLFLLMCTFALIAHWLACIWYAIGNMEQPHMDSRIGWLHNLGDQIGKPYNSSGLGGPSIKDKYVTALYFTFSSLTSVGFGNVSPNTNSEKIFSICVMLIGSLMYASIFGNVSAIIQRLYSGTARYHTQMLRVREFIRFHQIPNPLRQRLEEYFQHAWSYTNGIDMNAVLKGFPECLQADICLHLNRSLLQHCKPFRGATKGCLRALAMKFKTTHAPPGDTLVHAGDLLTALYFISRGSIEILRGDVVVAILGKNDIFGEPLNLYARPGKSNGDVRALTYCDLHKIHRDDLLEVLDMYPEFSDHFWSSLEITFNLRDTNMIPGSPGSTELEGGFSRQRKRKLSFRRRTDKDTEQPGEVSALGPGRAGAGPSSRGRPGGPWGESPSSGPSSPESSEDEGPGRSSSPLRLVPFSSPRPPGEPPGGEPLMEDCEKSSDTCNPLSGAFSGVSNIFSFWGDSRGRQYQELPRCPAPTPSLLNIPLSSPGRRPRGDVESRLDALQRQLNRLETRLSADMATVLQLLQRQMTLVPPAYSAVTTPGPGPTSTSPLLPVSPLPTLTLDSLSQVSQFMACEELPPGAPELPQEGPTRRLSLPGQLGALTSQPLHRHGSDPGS", "details": "Potency"}, "HeLa": {"tested_on": "HeLa", "assay": "ATP-based viability loss in HeLa cells – cell-based, CellTiter-Glo luminescence, cherry-pick samples, cytotoxicity control for MITF activator project, dose response (AID 540259)", "format": "functional", "details": "Homo sapiens"}, "Cytochrome P450 2C19": {"molecular_target": "Cytochrome P450 2C19 (Homo sapiens, UniProt P33261)", "sequence (P33261 whole entry)": "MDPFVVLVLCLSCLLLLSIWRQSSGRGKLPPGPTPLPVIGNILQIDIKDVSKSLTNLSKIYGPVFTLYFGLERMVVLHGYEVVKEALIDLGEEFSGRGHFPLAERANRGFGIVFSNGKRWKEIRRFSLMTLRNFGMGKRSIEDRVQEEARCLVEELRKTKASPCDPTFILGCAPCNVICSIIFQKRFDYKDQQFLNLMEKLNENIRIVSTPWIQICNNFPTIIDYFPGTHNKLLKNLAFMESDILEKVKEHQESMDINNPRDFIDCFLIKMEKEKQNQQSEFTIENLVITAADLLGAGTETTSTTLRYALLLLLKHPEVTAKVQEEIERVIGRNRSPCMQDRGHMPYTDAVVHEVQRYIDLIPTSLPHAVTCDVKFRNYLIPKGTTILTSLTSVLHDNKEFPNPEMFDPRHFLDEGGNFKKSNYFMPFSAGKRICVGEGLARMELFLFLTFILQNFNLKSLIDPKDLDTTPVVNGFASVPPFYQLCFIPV", "assay": "Cytochrome panel assay with activity outcomes. Panel member name: p450-cyp2c19 Compounds with AC50 equal or less than 10 uM are considered active", "format": "functional", "details": "read-out: AC50"}, "Interleukin-8 [2]": {"molecular_target": "T1, Interleukin-8 (Homo sapiens, UniProt P10145)", "T1 sequence (P10145 whole entry)": "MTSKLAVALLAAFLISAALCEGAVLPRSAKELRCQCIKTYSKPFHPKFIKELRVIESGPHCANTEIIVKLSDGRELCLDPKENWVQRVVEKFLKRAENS", "assay": "Dose Response confirmation of uHTS small molecule hits for cystic fibrosis induced NFkb Inhibitors in a PAF-induced IL8 counterscreen.", "format": "functional", "details": "read-out: IC50_Mean"}, "Interleukin-8 [3]": {"molecular_target": "T1, Interleukin-8", "assay": "Dose Response confirmation of uHTS small molecule hits for cystic fibrosis induced NFkb Inhibitors in a TNFa-induced IL8 counterscreen.", "format": "functional", "details": "read-out: IC50_Mean"}, "[4]": {"molecular_target": "Protein disulfide-isomerase (Homo sapiens, UniProt P07237)", "sequence (P07237 whole entry)": "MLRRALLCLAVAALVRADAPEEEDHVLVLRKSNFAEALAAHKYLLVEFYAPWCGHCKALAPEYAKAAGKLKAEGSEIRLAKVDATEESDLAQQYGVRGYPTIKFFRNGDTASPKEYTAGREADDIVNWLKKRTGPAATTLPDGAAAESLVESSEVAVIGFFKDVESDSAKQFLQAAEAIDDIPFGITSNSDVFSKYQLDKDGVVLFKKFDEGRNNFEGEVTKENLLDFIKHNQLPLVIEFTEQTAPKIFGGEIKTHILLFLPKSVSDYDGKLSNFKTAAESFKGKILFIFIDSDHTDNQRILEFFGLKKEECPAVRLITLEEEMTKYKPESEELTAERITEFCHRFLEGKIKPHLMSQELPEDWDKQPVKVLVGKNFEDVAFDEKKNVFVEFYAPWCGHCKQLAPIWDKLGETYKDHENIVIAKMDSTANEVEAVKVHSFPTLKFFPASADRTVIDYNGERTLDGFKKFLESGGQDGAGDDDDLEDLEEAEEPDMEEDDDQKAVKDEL", "assay": "inhibition of PDI-driven insulin aggregation – biochemical, turbidity, absorbance, cherry-picked samples, dose response (AID 602350)", "format": "functional"}, "[5]": {"assay": "NIH-3T3 fibroblast cytotoxicity, dose response, cytotoxicity control, cell-based, fluorescence, Alamar Blue, secondary assay (AID 2327);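 also: NIH-3T3 mouse fibroblasts cultured with fluconazole at 8 µg/mL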", "format": "functional"}, "[6]": {"assay": "Trypanosoma cruzi growth suppression in host cells – NIH3T3 host cells, beta-gal luminescence, confirmation (AID 2044);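 also: intracellular parasites grown in NIH/3T3 mouse fibroblasts as host cells; luminescent beta-galactosidase reporter signal from transgenic T. cruzi replicating inside host cells; inhibitors lower the luminescence signal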", "format": "functional, cell-based"}, "[7]": {"molecular_target": "Heat shock protein HSP 90-alpha (Homo sapiens, UniProt P07900)", "format": "functional, organism-based"}, "cells [8]": {"assay": "cells", "format": "functional, cell-based"}, "[9]": {"assay": "fluconazole-exposed Candida albicans growth modulators – fluorescence, retest, confirmation (AID 2467)", "format": "functional, cell-based"}, "HEK293 [10]": {"tested_on": "HEK293", "assay": "optical interference in Abeta FP readout, dose response, artefact control for IDE activator project, biochemical, fluorescence polarization (AID 588442)", "format": "functional, cell-based", "details": "Homo sapiens"}, "Insulin-degrading enzyme [11]": {"molecular_target": "T2, Insulin-degrading enzyme (Homo sapiens, UniProt P14735)", "T2 sequence (P14735 whole entry)": "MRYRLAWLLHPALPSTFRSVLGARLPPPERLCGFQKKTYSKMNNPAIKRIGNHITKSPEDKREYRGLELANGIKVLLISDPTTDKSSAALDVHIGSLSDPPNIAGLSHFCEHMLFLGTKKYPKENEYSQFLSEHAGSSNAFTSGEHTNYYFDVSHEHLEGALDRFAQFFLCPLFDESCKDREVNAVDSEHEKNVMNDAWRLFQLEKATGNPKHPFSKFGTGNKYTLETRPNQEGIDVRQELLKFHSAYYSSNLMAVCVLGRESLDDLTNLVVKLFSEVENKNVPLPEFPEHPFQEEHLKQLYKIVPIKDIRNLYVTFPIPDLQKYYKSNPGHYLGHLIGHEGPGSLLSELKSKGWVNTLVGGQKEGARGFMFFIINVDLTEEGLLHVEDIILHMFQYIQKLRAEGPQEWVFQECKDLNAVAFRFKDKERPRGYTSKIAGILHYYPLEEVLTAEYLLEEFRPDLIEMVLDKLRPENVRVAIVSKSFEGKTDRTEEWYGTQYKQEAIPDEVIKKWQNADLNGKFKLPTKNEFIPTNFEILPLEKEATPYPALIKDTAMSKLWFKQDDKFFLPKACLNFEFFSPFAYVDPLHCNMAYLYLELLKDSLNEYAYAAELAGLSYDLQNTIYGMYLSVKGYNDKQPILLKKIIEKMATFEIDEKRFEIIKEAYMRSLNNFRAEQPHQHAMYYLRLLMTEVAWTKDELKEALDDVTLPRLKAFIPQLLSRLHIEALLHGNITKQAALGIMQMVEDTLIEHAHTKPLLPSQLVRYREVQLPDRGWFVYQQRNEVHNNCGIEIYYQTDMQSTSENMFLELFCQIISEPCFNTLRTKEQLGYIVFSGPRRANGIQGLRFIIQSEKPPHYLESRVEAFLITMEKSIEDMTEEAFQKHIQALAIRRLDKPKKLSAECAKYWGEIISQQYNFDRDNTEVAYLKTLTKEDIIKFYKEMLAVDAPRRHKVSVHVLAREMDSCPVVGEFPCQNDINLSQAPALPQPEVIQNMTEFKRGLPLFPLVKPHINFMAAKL", "assay": "cellular IDE activation of Abeta substrate cleavage – fluorescence polarization, HEK cells, dose response (AID 588439)", "format": "functional, cell-based"}, "[12]": {"tested_on": "Streptococcus sp. 'group A'", "assay": "Streptococcus pyogenes SK(-)GAS viability under kanamycin – luminescence, BacTiterGlo, confirmation, counter-screen for streptokinase expression inhibitor project, dose response (AID 1900)", "format": "functional, organism-based"}, "HEK293 [13]": {"tested_on": "HEK293", "assay": "membrane integrity loss in HEK cells – cell-based, fluorescence, cytotoxicity control for IDE activator project, dose response (AID 588440);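 also: cytotoxicity by LDH release measuring loss of membrane integrity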", "format": "functional", "details": "Homo sapiens"}, "[14]": {"assay": "NIH3T3 cell viability loss – ATP luminescence, mouse fibroblasts, counter-screen, dose response (AID 2010);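 also: cells exposed to compound for about 90 hours before reading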", "format": "functional, cell-based"}, "cells [15]": {"assay": "cells", "format": "functional, cell-based", "remark": "listed apart in the source"}, "Streptococcus": {"tested_on": "Streptococcus", "assay": "GAS UMAA2166 growth inhibition – luminescence, BacTiterGlo, counter-screen for streptokinase expression inhibitor project, dose response (AID 1915);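 also: potency for reduction of bacterial viability or growth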", "format": "functional, organism-based"}, "Insulin-degrading enzyme [16]": {"molecular_target": "T2, Insulin-degrading enzyme", "assay": "recombinant IDE activation, cell-free – biochemical, fluorescence polarization, counter-screen for IDE activator project, dose response (AID 588681)"}, "[17]": {"molecular_target": "T3, RNA-binding protein pos-1 (Caenorhabditis elegans, UniProt G5EF15)", "T3 sequence (G5EF15 whole entry)": "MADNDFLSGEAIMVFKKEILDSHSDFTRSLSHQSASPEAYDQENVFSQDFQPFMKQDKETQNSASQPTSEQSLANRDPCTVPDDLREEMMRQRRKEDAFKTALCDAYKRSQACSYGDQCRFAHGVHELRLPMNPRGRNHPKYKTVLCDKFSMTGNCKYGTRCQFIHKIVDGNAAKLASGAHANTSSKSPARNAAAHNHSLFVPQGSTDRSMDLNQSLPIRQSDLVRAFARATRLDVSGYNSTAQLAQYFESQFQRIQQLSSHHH", "assay": "disruptors of C. elegans POS-1 RNA interaction – biochemical, fluorescence polarization, dose response (AID 1964);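 also: purified POS-1 fused to maltose binding protein made in E. coli; potency of compounds blocking POS-1 binding to fluorescent RNA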"}, "[18]": {"assay": "HEK-293T viability loss after treatment – luminescence, T-cell screen hits, cytotoxicity control for TCR NF-kB inhibitor project, dose response (AID 489026);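 also: cells exposed to compound about 14 hours before the viability readout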", "format": "functional, cell-based"}, "[19]": {"molecular_target": "Dual specificity tyrosine-phosphorylation-regulated kinase 1A (Rattus norvegicus, UniProt Q63470)", "format": "biochemical, Homo sapiens"}, "[20]": {"molecular_target": "Serine/threonine-protein phosphatase (Candida dubliniensis (strain CD36 / CBS 7987 / NCPF 3949 / NRRLY-17841) (Yeast), UniProt B9W6M3)", "sequence (B9W6M3 whole entry)": "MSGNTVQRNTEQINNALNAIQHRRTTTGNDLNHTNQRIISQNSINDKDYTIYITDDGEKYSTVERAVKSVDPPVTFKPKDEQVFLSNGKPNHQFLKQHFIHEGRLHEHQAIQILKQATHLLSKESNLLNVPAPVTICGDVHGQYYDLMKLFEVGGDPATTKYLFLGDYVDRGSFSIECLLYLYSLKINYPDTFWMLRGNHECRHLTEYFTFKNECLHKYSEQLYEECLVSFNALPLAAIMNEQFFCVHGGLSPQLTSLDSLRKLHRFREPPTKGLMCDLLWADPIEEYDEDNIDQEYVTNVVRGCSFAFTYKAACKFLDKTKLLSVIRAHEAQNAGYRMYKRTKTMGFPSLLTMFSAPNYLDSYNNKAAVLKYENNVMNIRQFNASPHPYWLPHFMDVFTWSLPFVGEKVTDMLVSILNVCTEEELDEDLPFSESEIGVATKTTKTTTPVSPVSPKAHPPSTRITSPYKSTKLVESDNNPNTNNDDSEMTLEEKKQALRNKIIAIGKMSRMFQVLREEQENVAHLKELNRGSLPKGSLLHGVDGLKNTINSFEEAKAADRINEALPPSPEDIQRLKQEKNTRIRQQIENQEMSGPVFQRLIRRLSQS", "assay": "blockers of CaCl2-induced CDRE-lacZ signaling – S. cerevisiae, luminescence, secondary, dose response (AID 2388);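 also: yeast reporter cells carrying a calcineurin-responsive lacZ construct stimulated with calcium chloride; luminescent beta-galactosidase reporter signal in whole cells rather than isolated phosphatase activity; potency for inhibition where a drop in reporter signal means calcineurin blockade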", "format": "functional, cell-based"}, "[21]": {"molecular_target": "ATP-dependent molecular chaperone HSP82 (Candida albicans (strain WO-1) (Yeast), UniProt C4YTQ8)", "sequence (C4YTQ8 whole entry)": "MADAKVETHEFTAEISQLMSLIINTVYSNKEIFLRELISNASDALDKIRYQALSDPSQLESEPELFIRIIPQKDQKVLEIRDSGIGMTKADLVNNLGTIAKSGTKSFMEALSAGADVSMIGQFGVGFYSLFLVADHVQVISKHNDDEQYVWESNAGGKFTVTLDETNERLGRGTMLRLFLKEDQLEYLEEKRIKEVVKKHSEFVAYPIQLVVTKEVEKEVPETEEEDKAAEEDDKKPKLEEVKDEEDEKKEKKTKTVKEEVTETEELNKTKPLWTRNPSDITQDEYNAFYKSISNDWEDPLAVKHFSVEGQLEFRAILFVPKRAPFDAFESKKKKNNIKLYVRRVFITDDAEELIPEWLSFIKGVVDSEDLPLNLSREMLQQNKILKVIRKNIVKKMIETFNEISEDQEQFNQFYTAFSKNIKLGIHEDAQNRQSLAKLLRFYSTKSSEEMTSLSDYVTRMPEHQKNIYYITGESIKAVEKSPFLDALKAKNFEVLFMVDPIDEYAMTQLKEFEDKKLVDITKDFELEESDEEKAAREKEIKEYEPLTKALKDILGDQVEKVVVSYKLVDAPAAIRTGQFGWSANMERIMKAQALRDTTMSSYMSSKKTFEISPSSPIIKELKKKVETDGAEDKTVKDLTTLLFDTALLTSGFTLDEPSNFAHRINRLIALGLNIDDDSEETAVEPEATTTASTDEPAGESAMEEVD", "assay": "steroid-induced GRE reporter decrease in yeast – S. cerevisiae, luminescence, Hsp90 inhibitor project, dose response (AID 2400);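 also: beta-galactosidase luminescence from glucocorticoid response element reporter as proxy for Hsp90 function; inhibitor potency where signal loss means Hsp90 inhibition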", "format": "functional, cell-based"}, "[22]": {"molecular_target": "Diacylglycerol lipase-beta (Mus musculus, UniProt Q91WC9)", "sequence (Q91WC9 whole entry)": "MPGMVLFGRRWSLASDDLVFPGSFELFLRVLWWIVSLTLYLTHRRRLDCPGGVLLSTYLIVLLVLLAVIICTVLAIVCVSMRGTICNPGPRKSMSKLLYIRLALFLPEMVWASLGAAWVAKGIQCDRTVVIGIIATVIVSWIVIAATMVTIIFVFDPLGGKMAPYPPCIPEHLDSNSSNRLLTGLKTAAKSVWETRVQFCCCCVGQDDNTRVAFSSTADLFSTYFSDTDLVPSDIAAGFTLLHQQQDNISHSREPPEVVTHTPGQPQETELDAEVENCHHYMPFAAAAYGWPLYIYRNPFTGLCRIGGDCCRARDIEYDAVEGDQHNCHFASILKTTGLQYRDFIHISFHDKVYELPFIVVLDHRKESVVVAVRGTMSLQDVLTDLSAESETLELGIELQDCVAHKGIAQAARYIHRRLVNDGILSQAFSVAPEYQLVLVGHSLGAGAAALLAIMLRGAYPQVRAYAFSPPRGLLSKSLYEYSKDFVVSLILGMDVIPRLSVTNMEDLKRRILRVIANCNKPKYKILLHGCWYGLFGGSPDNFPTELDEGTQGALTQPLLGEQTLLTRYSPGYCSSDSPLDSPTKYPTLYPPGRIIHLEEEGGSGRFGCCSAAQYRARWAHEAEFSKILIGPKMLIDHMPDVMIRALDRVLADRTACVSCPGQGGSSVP", "assay": "Late stage assay provider results from the probe development effort to identify inhibitors of diacylglycerol lipase, beta (DAGLb): fluorescence-based dose-response biochemical gel-based competitive Activity-Based Protein Profiling (ABPP) inhibition of DAGLb in vitro.", "format": "functional"}, "[23]": {"molecular_target": "T4, Probable nicotinate-nucleotide adenylyltransferase (Staphylococcus aureus (strain N315), UniProt P65502)", "T4 sequence (P65502 whole entry)": "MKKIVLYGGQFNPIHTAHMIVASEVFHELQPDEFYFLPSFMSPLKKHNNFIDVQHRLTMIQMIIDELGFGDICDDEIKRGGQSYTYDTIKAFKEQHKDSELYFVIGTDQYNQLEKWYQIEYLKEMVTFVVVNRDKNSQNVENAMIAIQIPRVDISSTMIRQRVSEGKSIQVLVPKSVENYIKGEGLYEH", "format": "functional, Staphylococcus aureus subsp. aureus N315", "details": "read-out: IC50_Mean"}, "[24]": {"molecular_target": "T4, Probable nicotinate-nucleotide adenylyltransferase", "format": "functional, Staphylococcus aureus subsp. aureus N315"}},
  "note": "Activity calls are given as the source filed them.",
  "data": [
    {"compound": "NC1(C(=O)O)CC1", "values": [
      {"measurement": "AC50", "setting": "[1]", "result": "31.6 µM (inconclusive)"}
    ]},
    {"compound": "O=C(Nc1cccc2[nH]ncc12)c1ccc(F)cc1", "values": [
      {"measurement": "AC50", "setting": "HeLa", "result": "52.8 µM (active)"},
      {"measurement": "AC50", "setting": "Cytochrome P450 2C19", "result": "14.1 µM (inconclusive)"},
      {"measurement": "IC50", "setting": "Interleukin-8 [2]", "result": "13.8 µM (inactive)"},
      {"measurement": "IC50", "setting": "Interleukin-8 [3]", "result": "> 79 µM (inactive)"}
    ]},
    {"compound": "C[C@@H]1O[C@@H](Oc2c(-c3ccc(O)c(O)c3)oc3cc(O)cc(O)c3c2=O)[C@H](O)[C@H](O)[C@H]1O", "values": [
      {"measurement": "AC50", "setting": "[4]", "result": "5.59 µM (active)"}
    ]},
    {"compound": "O=C(N/N=C\\c1c(O)ccc2ccccc12)c1cncc(Br)c1", "values": [
      {"measurement": "EC50", "setting": "[5]", "result": "8.52 µM (inconclusive)"},
      {"measurement": "EC50", "setting": "[6]", "result": "0.792 µM (active)"},
      {"measurement": "AC50", "setting": "[7]", "result": "4.06 µM (active)"},
      {"measurement": "EC50", "setting": "cells [8]", "result": "10.3 µM (active)"},
      {"measurement": "EC50", "setting": "[9]", "result": "0.342 µM (active)"},
      {"measurement": "EC50", "setting": "HEK293 [10]", "result": "12.4 µM (inactive)"},
      {"measurement": "EC50", "setting": "Insulin-degrading enzyme [11]", "result": "> 54.7 µM (inactive)"},
      {"measurement": "EC50", "setting": "[12]", "result": "1.4 µM (active)"},
      {"measurement": "IC50", "setting": "HEK293 [13]", "result": "> 89.3 µM (inactive)"},
      {"measurement": "EC50", "setting": "[14]", "result": "7.07 µM (active)"},
      {"measurement": "EC50", "setting": "cells [15]", "result": "86.8 µM (active)"},
      {"measurement": "EC50", "setting": "Streptococcus", "result": "3.59 µM (active)"},
      {"measurement": "EC50", "setting": "Insulin-degrading enzyme [16]", "result": "> 54.7 µM (inactive)"},
      {"measurement": "EC50", "setting": "[17]", "result": "> 300 µM (not active)"},
      {"measurement": "IC50", "setting": "[18]", "result": "> 80 µM (inactive)"}
    ]},
    {"compound": "NC1=NC(=O)/C(=C\\c2ccc(-c3ccc(Cl)cc3)o2)S1", "values": [
      {"measurement": "AC50", "setting": "[19]", "result": "0.195 µM (active)"}
    ]},
    {"compound": "C=CCc1c(C)c(C#N)c2nc3ccccc3n2c1NCCN(C)C", "values": [
      {"measurement": "EC50", "setting": "[5]", "result": "> 160 µM (inactive)"},
      {"measurement": "EC50", "setting": "[20]", "result": "> 180 µM (inactive)"},
      {"measurement": "AC50", "setting": "[7]", "result": "4.45 µM (active)"},
      {"measurement": "EC50", "setting": "[9]", "result": "1.27 µM (active)"},
      {"measurement": "EC50", "setting": "[21]", "result": "> 150 µM (inactive)"}
    ]},
    {"compound": "O=C(N1CCCCC1Cc1ccccc1)n1cc(-c2ccc(-c3ccccc3C(F)(F)F)cc2)nn1", "note": "(centres undefined)", "values": [
      {"measurement": "IC50", "setting": "[22]", "result": "0.058 µM (active)"}
    ]},
    {"compound": "CCN(Cc1ccccc1)S(=O)(=O)c1ccc(C(=O)Nc2nnc(-c3ccccc3OC)o2)cc1", "values": [
      {"measurement": "IC50", "setting": "[23]", "result": "56.5 µM (active)"},
      {"measurement": "IC50", "setting": "[24]", "result": "8.19 µM (active)"},
      {"measurement": "EC50", "setting": "[5]", "result": "39.3 µM (active)"},
      {"measurement": "EC50", "setting": "[20]", "result": "> 180 µM (inactive)"},
      {"measurement": "EC50", "setting": "[9]", "result": "0.468 µM (active)"},
      {"measurement": "EC50", "setting": "[21]", "result": "19.9 µM (active)"}
    ]}
  ]
}
